Tests used:
[1] = logP value by HPLC according to Donovan et al.; details: for chromatographic logP: HPLC with methanol/0.1% phosphoric acid gradient, pH 2
Method: • Operating temperature 18-24° C. • Flow 1.5 mL/min • Linear gradient (methanol/0.1% phosphoric acid pH 2) from 10% to 100% methanol in 9.4 min, equilibrium time between 2 runs 6 min
ca. 0.5 mg of analyte is added to 0.5 ml of a standard solution (440 mg methyl phenyl sulfonate and 380 μl toluene in 150 mL methanol). 2 μl of this sample solution is injected.
Because the distribution coefficients of the two standards running in each test are known, the distribution coefficient of the analytes can be determined from the relationships of the analyte/standard retention times.

[2] = tested on: Staphylococcus aureus ATCC 6538; experiment: mouse infected with Staphylococcus aureus infection model (survival); type: in vivo, BALB/c mice; details: 2 × 1.0 mg (50 mg/kg) i.p.
Method: Method for Effectiveness In Vivo with the Mouse Infected with Staphylococcus aureus Model
On Day 0, at least 3 BALB/c mice per test substance (Table 8) or controls are pretreated with cyclophosphamide (250 mg/kg) in 250 μl PBS inta peritoneal (i.p.).
On Day 2, the animals again received 100 mg/kg i.p.
On Day 2, a colony of the test germ is transferred from a growing agar plate (Müller-Hinton-Agar, Beckton Dickinson) into a flask with 10 ml CASO broth (CASO-B., Soyabean peptone-Casein peptone broth, SIFIN, 30 g/l) and is cultivated overnight at 37° C. and a shaking frequency of 250 rpm.
On Day 3, the pre-culture (Vk) is diluted 1:50 with CASO-B and further cultivated ca. 2 hours until an extinction in the medium of 0.6 at a wavelength of 550 nm is reached. Then, it is grown 1× with PBS at room temperature and set again to an extinction of 0.6.
At least 3 animals for a test substance or controls are infected with 10 μl/g body weight grown germs of a bacteria suspension with the extinction 0.6 (ca. 10^10-10^12 CFU, Colony forming units) i.p.
After 30 minutes, antibiotic solution is injected into the mice in a volume of 200 μl PBS with 3% DMSO i.p. 6 hours later, the second antibiotic injection is performed at the same concentration. […]

S. epidermidis 847 = experiment: agar diffusion test (Test System II, multi-resistant germs); type: cell-based, Staphylococcus epidermidis; parameters: key: r = resistant (no detectable zone of inhibition)
Method: (§1) The test substances are deposited in stepped quantities (10 μg, 50 μg, 100 μg) onto active ingredient carriers (sensi-discs). For this purpose, the test substances are dissolved in methanol or A. dest. according to their solubility. Each inoculated plate is fitted with 3 test sheets.
(§2) Test System II (Effect Against Multi-Resistant Germs)
(§3) For this purpose, bacteria is cultivated on Müller-Hinton-Agar II plates.
(§4) With 1-1.5 ml physiological saline solution, a bacteria suspension of McFarland 0.5 (corresponds to a bacteria density of 150×10^6 germs) is produced. Then, with a sterile glass rod, a small drop of bacteria suspension is placed on the Müller-Hinton-Agar plate and coated in three layers (vertical, horizontal, and transverse). Thereafter, the sensi-discs with the novel semi-synthetic test substances are placed on top. The fitted plates are incubated for 18-20 hours at 37° C. After incubation, the diameters of the zones of inhibition are read as a measure for the antimicrobial activity of the novel semi-synthetic test substances.

S. aureus 36881 = experiment: as above; type: cell-based, Staphylococcus aureus; parameters: key: r = resistant (no detectable zone of inhibition)
Method: as §1, §2, §3, §4

S. aureus 520 = experiment: as above; type: cell-based, Staphylococcus aureus; parameters: key: r = resistant (no detectable zone of inhibition)
Method: as §1, §2, §3, §4

[3] = tested on: S. aureus North Germany strain; experiment: as above; type: cell-based, Staphylococcus aureus; parameters: key: r = resistant (no detectable zone of inhibition)
Method: as §1, §2, §3, §4

S. aureus ATCC 6538 = experiment: as above; type: cell-based, Staphylococcus aureus
Method: as §1, §2, §3, §4

S. aureus 38418 = experiment: as above; type: cell-based, Staphylococcus aureus
Method: as §1, §2, §3, §4

S. epidermidis 125 = experiment: as above; type: cell-based, Staphylococcus epidermidis
Method: as §1, §2, §3, §4

[4] = tested on: Enterococcus faecalis 769; experiment: as above; type: cell-based; parameters: key: r = resistant (no detectable zone of inhibition)
Method: as §1, §2, §3, §4

[5] = tested on: Staphylococcus aureus 315; experiment: as above; type: cell-based; parameters: key: r = resistant (no detectable zone of inhibition)
Method: as §1, §2, §3, §4

Row | chromatographic logP [1] | Compound | Survival/tested mice n/n [2] | Diameter of zone of inhibition (S. epidermidis 847; Quantity n [mol] 0.019) | Diameter of zone of inhibition (S. epidermidis 847; Quantity n [mol] 0.19) [mm] | Diameter of zone of inhibition (S. aureus 36881; Quantity n 0.019) | Diameter of zone of inhibition (S. aureus 36881; Quantity n 0.19) [mm] | Diameter of zone of inhibition (S. aureus 520; Quantity n [mol] 0.019) | Diameter of zone of inhibition (S. aureus 520; Quantity n [mol] 0.19) | Diameter of zone of inhibition ([3]; Quantity n 0.019) | Diameter of zone of inhibition ([3]; Quantity n 0.19) [mm] | Diameter of zone of inhibition (S. aureus ATCC 6538; Quantity n 0.019) [mm] | Diameter of zone of inhibition (S. aureus ATCC 6538; Quantity n 0.19) [mm] | Diameter of zone of inhibition (S. aureus 38418; Quantity n [mol] 0.019) [mm] | Diameter of zone of inhibition (S. aureus 38418; Quantity n [mol] 0.19) [mm] | Diameter of zone of inhibition (S. epidermidis 125; Quantity n 0.019) [mm] | Diameter of zone of inhibition (S. epidermidis 125; Quantity n 0.19) [mm] | Diameter of zone of inhibition ([4]; Quantity n 0.019) | Diameter of zone of inhibition ([4]; Quantity n 0.19) | Diameter of zone of inhibition ([5]; Quantity n 0.019) | Diameter of zone of inhibition ([5]; Quantity n 0.19) [mm] | other results
1 | – | N[C@@H](C(=O)N[C@@H]1C(=O)N2C(C(=O)O)=C(Cl)CC[C@H]12)c1ccccc1 [2d, Loracarbef, reference compound] | – | – | – | – | – | – | – | – | – | – | – | – | – | – | – | – | – | – | – | logP value ([1]; HPLC, methanol/0.1% phosphoric acid pH 2): −3.13
2 | – | 3-chlorine-7-[2-(2-methoxycarbonyl-3,6-dioxocyclohexa-1,4-dienylamino)-2-phenyl-acetylamino]-8-oxo-5-aza-bicyclo[4.2.0]oct-3-ene-4-carboxylic acid [1o] | 2/3 | r | 18 | r | 12 | r | r | r | 12 | 22 | 30 | 14 | 28 | 14 | 24 | r | r | r | 10 | Diameter of zone of inhibition (S. epidermidis 847; Quantity n [mol] 0.094): 14 mm; Diameter of zone of inhibition (S. aureus 36881; Quantity n 0.094): r; Diameter of zone of inhibition (S. aureus 520; Quantity n [mol] 0.094): r; Diameter of zone of inhibition ([3]; Quantity n 0.094): r; Diameter of zone of inhibition (S. aureus ATCC 6538; Quantity n 0.094): 28 mm; Diameter of zone of inhibition (S. aureus 38418; Quantity n [mol] 0.094): 14 mm; Diameter of zone of inhibition (S. epidermidis 125; Quantity n 0.094): 20 mm; Diameter of zone of inhibition ([4]; Quantity n 0.094): r; Diameter of zone of inhibition ([5]; Quantity n 0.094): r
3 | -0.4 | NC(=O)c1cc(O)ccc1O [2,5-dihydroxybenzamide] | – | – | – | – | – | – | – | – | – | – | – | – | – | – | – | – | – | – | – | –
4 | -1.21 | O=C(NCCO)c1cc(O)ccc1O [2,5-dihydroxy-N-(2-hydroxyethyl)benzamide] | – | – | – | – | – | – | – | – | – | – | – | – | – | – | – | – | – | – | – | –
5 | – | CCOC(=O)C1=C(NC(C(=O)NC2C(=O)C3CC(Cl)=C(C(=O)O)NC32)c2ccccc2)C(=O)C=CC1=O (stereo not shown) [1p, 3-chlorine-7-[2-(2-ethoxycarbonyl-3,6-dioxocyclohexa-1,4-dienylamino)-2-phenyl-acetylamino]-8-oxo-5-azabicyclo[4.2.0]oct-3-ene-4-carboxylic acid] | 2/3 | r | 20 | r | 20 | r | 8 mm | r | 12 | 22 | 32 | 18 | >30 | 16 | 28 | r | r | r | 10 | Diameter of zone of inhibition (S. epidermidis 847; Quantity n [mol] 0.094): 16 mm; Diameter of zone of inhibition (S. aureus 36881; Quantity n 0.094): 12 mm; Diameter of zone of inhibition (S. aureus 520; Quantity n [mol] 0.094): r; Diameter of zone of inhibition ([3]; Quantity n 0.094): r; Diameter of zone of inhibition (S. aureus ATCC 6538; Quantity n 0.094): 30 mm; Diameter of zone of inhibition (S. aureus 38418; Quantity n [mol] 0.094): 28 mm; Diameter of zone of inhibition (S. epidermidis 125; Quantity n 0.094): 26 mm; Diameter of zone of inhibition ([4]; Quantity n 0.094): r; Diameter of zone of inhibition ([5]; Quantity n 0.094): r
6 | – | 3-chlorine-7-[2-(2-carbamoyl-3,6-dioxocyclohexa-1,4-dienylamino)-2-phenyl-acetylamino]-8-oxo-5-aza-bicyclo[4.2.0]oct-3-ene-4-carboxylic acid [1n] | 3/3 | r | 20 | r | 8 | r | 8 mm | r | 14 | 22 | 32 | 14 | 30 | 14 | 26 | r | r | r | 12 | Diameter of zone of inhibition (S. epidermidis 847; Quantity n [mol] 0.096): 16 mm; Diameter of zone of inhibition (S. aureus 36881; Quantity n 0.096): r; Diameter of zone of inhibition (S. aureus 520; Quantity n [mol] 0.096): r; Diameter of zone of inhibition ([3]; Quantity n 0.096): r; Diameter of zone of inhibition (S. aureus ATCC 6538; Quantity n 0.096): 28 mm; Diameter of zone of inhibition (S. aureus 38418; Quantity n [mol] 0.096): 26 mm; Diameter of zone of inhibition (S. epidermidis 125; Quantity n 0.096): 22 mm; Diameter of zone of inhibition ([4]; Quantity n 0.096): r; Diameter of zone of inhibition ([5]; Quantity n 0.096): r
7 | 2.65 | CCOC(=O)c1cc(O)ccc1O [2,5-dihydroxybenzoic acid ethylester] | – | – | – | – | – | – | – | – | – | – | – | – | – | – | – | – | – | – | – | –

Source: patent US20110040086A1, “Novel Beta-Lactam Antibiotics, Methods for Their Production, and Their Use” (DRITTE PATENTPORTFOLIO BETEILIGUNGSGESELLSCHAFT MB, priority 2007, published 2011)
